# Patent US20050234041A1, “Substituted 1-benzazepines and derivatives thereof” (priority 2001, published 2005)
# Like-named read-outs stand apart in the source and are kept apart here.
# Assays:
# Helicobacter pylori = assay: MIC, broth dilution method, Helicobacter pylori; assay type: cell-based; conditions: for MIC: Helicobacter pylori
# Description: (§1) Antibacterial activity can be determined by several standard methods well known by those skilled in the art, including disc diffusions methods, broth dilution minimal inhibitory concentration (MIC) methods, etc., including the detailed method outlined below and as defined by the National Committee of Clinical Laboratory Standards in the United States.
# (§2) MIC, Broth Dilution Method
# (§3) Cultures of bacteria are initially brought up from the freezer stocks onto chocolate agar plates by streaking a loop-full, then incubated for 18 hours at 35-37° C. in a 5% CO2 incubator.
# (§4) Five to 10 colonies are picked from the chocolate agar plate for subculture to Brain-Heart Infusion (BHI) broth or Mueller Hinton broth or BHI containing 4% serum and incubated as described.
# (§5) Evaluate the optical density of the organisms in the wells of a 96 well microtiter plate with and without the test compound. The optical density of the organisms in the presence of an active compound will be less than the optical density of the same organism untreated. The activity of the compounds is described as either negative or the lowest concentration inhibiting growth. The results are depicted in Table III, where +/− represents the least activity and ++++ represents the greatest activity. In Table IV, the results are depicted where MIC represents the lowest concentration of antibiotic that inhibits bacterial growth.
# Campylobacter jejuni = assay: MIC, broth dilution method, Campylobacter jejuni; assay type: cell-based; conditions: for MIC: Campylobacter jejuni
# Description: as §1, §2, §3, §4, §5
# [1] = Table V, read-out: MIC (μg/mL) H. pylori
# [2] = Table V, read-out: MIC (μg/mL) C. jejuni
# [3] = Table IV, MIC, lowest concentration that inhibits bacterial growth, read-out: Antibacterial Activity (micrograms/ml) Helicobacter pylori
# [4] = Table IV, MIC, lowest concentration that inhibits bacterial growth, read-out: Antibacterial Activity (micrograms/ml) Campylobacter jejuni
# [5] = Table IV, MIC, lowest concentration that inhibits bacterial growth
SMILES,MIC (Helicobacter pylori; [1]),MIC (Campylobacter jejuni; [2]),further results
"COc1ccc2c(c1)N(CCC1OCCO1)C(=O)C(C(=O)OC(C)(C)C)CC2 (racemic) [Example 223, 3(R,S)-tert-Butoxycarbonyl-8-methoxy-1-[2-(1,3-dioxolan-2-yl)ethyl]-2,3,4,5-tetrahydro-1H-1-benzazepine-2-one]",60 µg/mL,> 250 µg/mL,–
"COc1ccc2c(c1)N(CC(=O)OC(C)(C)C)C(=O)C(C(=O)OC(C)(C)C)CC2 (racemic) [Example 200, 1-(tert-Butoxycarbonyl)methyl-3(R,S)-tert-butoxycarbonyl-8-methoxy-2,3,4,5-tetrahydro-1H-1-benzazepine-2-one]",15 µg/mL,> 250 µg/mL,–
"CCN1C(=O)C(C(=O)OC)CCc2cc(Br)c(OC)cc21 (racemic) [Example 28, 7-bromo-1-ethyl-3(R,S)-methoxycarbonyl-8-methoxy-2,3,4,5-tetrahydro-1H-1-benzazepine-2-one]",–,–,MIC (Helicobacter pylori; [3]): 25 µg/mL; MIC (Campylobacter jejuni; [4]): > 200 µg/mL
"CCN1C(=O)C(CC)(C(=O)O)CCc2ccc(OC)cc21 (racemic) [Example 7, 3(R,S)-Carboxyl-1,3-diethyl-8-methoxy-2,3,4,5-tetrahydro-1H-1-benzazepine-2-one]",–,–,MIC (Helicobacter pylori; [3]): 100 µg/mL; MIC (Campylobacter jejuni; [4]): > 200 µg/mL
"CCN1C(=O)C(C(=O)OC(C)(C)C)CCc2cc(N3CCN(C(=O)OCc4ccccc4)CC3)c(OC)cc21 (racemic) [Example 26, 7-[(4-benzyloxycarbonyl)-piperazin-1-yl]-3(R,S)-tert-butoxycarbonyl-1-ethyl-8-methoxy-2,3,4,5-tetrahydro-1H-1-benzazepine-2-one]",–,–,Antibacterial Activity (micrograms/ml) Helicobacter pylori (Helicobacter pylori; [5]): 12.5 micrograms/ml; Antibacterial Activity (micrograms/ml) Campylobacter jejuni (Campylobacter jejuni; [5]): 125 micrograms/ml
"CCOC(=O)C1(CC)CCc2ccc(OC)cc2N(CC)C1=O (racemic) [Example 6, 1,3-Diethyl-3(R,S)-ethoxycarbonyl-8-methoxy-2,3,4,5-tetrahydro-1H-1-benzazepine-2-one]",–,–,MIC (Helicobacter pylori; [3]): 12.5 µg/mL; MIC (Campylobacter jejuni; [4]): 50 µg/mL
"COc1cc2c(cc1[N+](=O)[O-])CCC(C(=O)OC(C)(C)C)C(=O)N2 (racemic) [Example 198, 3(R,S)-tert-Butoxycarbonyl-8-methoxy-7-nitro-2,3,4,5-tetrahydro-1H-1-benzazepine-2-one]",4 µg/mL,60 µg/mL,–
"CCOc1ccc2c(c1)N(CC)C(=O)C(C(=O)OC(C)(C)C)CC2 (racemic) [Example 180, 8-Ethoxy-3(R,S)-tert-butoxycarbonyl-1-ethyl-2,3,4,5-tetrahydro-1H-1-benzazepine-2-one]",32 µg/mL,> 200 µg/mL,–
"COc1ccc2c(c1)N(CCO)C(=O)C(C(=O)OC(C)(C)C)CC2 (racemic) [Example 222, 3(R,S)-tert-Butoxycarbonyl-1-(2-hydroxy)ethyl-8-methoxy-2,3,4,5-tetrahydro-1H-1-benzazepine-2-one]",–,–,"MIC (μg/mL) H. pylori (Helicobacter pylori; Table V): 60 µg/mL; MIC (μg/mL) C. jejuni (Campylobacter jejuni; Table V): >250, μg/mL"

# Now from value to compound, other results behind:
MIC (Helicobacter pylori; [1]),MIC (Campylobacter jejuni; [2]),SMILES,further results
16 µg/mL,8 µg/mL,"CCN1C(=O)CCCc2ccc(Br)cc21 [Example 191, 8-Bromo-1-ethyl-2,3,4,5-tetrahydro-1H-1-benzazepine-2-one]",–
64 µg/mL,> 250 µg/mL,"COc1cccc2c1CCCC(=O)N2 [Example 186, 6-Methoxy-2,3,4,5-tetrahydro-1 H-1-benzazepine-2-one]",–
125 µg/mL,> 250 µg/mL,"O=C1CCCc2cc(O)ccc2N1 [Example 189, 7-Hydroxy-2,3,4,5-tetrahydro-H-1-benzazepine-2-one]",–
125 µg/mL,> 250 µg/mL,"COc1ccc2c(c1)N(Cc1cccc(F)c1)C(=O)C(C(=O)O)CC2 (racemic) [Example 184, 3(R,S)-carboxyl-1-(3-fluorobenzyl)-8-methoxy-2,3,4,5-tetrahydro-1H-1-benzazepine-2-one]",–
250 µg/mL,125 µg/mL,"O=C1CCCc2ccc([N+](=O)[O-])cc2N1 [Example 181, 8-Nitro-2,3,4,5-tetrahydro-1H-1-benzazepine-2-one]",–
